Data reported in PMC8648761, “Reductive inactivation of the hemiaminal pharmacophore for resistance against tetrahydroisoquinoline antibiotics” (Nature Communications, 2021).

How the values were obtained:
NapW [1] = molecular target: T1, NapW (Streptomyces lusitanus, UniProt S4TKM8); assay: X-ray crystal structure (co-crystallisation); format: binding; conditions: co-crystallised with 5 mM NADPH; modelled as NADP+; Rossmann fold site
T1 construct: recombinant in E. coli BL21(DE3), His-tagged, Ni-NTA (pET-28a or pET-37b)
T1 sequence (S4TKM8 entry or part of it): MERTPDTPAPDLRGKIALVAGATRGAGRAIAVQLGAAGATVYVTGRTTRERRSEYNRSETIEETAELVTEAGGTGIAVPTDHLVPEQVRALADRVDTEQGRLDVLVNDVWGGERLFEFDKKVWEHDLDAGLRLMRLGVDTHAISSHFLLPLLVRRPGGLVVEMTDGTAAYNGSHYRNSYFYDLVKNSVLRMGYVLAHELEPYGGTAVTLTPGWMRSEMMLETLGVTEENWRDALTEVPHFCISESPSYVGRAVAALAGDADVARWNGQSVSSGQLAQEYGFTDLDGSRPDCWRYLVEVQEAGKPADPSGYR

[2] = test system: T2, SDR-Rm (Rhizobium mesoamericanum); assay: HPLC of reduction to […]; format: biochemical; conditions: […] ET-[…] NADPH, Tris-HCl pH […] C, […] h
T2 construct: recombinant in E. coli BL21(DE3), His-tagged
T2 sequence (Z9SGJ4VC86 1-304): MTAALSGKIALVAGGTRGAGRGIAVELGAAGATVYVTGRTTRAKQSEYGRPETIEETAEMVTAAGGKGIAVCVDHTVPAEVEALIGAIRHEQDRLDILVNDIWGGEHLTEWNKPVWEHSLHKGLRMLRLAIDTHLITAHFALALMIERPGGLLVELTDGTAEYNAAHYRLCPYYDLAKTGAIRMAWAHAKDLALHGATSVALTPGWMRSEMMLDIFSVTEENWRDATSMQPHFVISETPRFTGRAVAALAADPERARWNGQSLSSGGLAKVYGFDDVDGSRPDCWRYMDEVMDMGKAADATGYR

homW = molecular target: T3, homW (Streptomyces lusitanus, UniProt A0A896A0X3); assay: HPLC and MS of reduction to […]; format: biochemical; conditions: […] ET-[…] NADPH, Tris-HCl pH […] C, […] h
T3 sequence (A0A896A0X3 1-304): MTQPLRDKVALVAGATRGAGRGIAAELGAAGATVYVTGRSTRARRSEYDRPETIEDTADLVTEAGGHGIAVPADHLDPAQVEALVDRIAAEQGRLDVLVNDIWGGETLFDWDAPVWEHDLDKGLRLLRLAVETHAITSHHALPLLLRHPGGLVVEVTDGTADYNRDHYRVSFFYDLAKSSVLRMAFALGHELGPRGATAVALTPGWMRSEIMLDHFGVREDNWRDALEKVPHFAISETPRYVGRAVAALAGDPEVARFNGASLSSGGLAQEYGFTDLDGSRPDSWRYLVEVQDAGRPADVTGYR

homO1b = molecular target: T4, homO1b (Streptomyces lavendulae, UniProt A0A896A5A8); assay: HPLC and MS of reduction to […]; format: biochemical; conditions: […] ET-[…] NADPH, Tris-HCl pH […] C, […] h
T4 sequence (A0A896A5A8 1-308): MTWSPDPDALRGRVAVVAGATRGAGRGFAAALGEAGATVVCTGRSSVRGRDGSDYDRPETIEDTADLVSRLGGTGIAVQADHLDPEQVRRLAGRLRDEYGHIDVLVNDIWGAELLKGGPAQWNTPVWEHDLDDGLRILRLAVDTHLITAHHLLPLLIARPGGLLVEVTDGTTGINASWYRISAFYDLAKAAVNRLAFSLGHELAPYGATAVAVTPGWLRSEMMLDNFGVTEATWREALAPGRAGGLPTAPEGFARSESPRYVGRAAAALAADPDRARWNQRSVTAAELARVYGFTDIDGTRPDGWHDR

SDR-Mb = molecular target: T5, SDR-Mb (Myxococcales bacterium, UniProt A0A1M3NHK2); assay: HPLC of reduction to […]; format: biochemical; conditions: […] ET-[…] NADPH, Tris-HCl pH […] C, […] h
T5 construct: recombinant in E. coli BL21(DE3), His-tagged
T5 sequence (A0A1M3NHK2 1-336): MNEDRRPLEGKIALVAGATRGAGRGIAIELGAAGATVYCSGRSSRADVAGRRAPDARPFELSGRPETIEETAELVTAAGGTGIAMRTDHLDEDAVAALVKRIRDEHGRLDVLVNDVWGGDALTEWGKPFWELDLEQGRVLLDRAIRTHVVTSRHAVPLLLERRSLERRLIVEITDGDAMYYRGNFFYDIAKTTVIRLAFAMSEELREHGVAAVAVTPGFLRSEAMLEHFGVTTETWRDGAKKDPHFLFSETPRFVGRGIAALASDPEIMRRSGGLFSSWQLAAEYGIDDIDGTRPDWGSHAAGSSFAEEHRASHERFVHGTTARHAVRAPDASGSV

homO1a = molecular target: T6, homO1a (Streptomyces lavendulae, UniProt A0A895ZRD1); assay: HPLC and MS of reduction to […]; format: biochemical; conditions: […] ET-[…] NADPH, Tris-HCl pH […] C, […] h
T6 sequence (A0A895ZRD1 1-325): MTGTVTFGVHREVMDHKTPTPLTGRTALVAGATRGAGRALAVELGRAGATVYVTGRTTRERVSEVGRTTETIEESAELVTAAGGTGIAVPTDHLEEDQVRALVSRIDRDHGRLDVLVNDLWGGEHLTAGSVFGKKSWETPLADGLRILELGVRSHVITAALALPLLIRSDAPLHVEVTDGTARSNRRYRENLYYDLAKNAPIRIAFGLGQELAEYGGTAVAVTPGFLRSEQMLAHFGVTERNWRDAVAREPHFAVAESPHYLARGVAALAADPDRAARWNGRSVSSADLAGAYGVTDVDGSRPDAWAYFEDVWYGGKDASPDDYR

NapW [3] = molecular target: T1, NapW; assay: HPLC and MS of reduction to […]; format: biochemical; conditions: 290 uM ET-743, 1 mM NADPH, Tris-HCl pH 8.0, 30 C, 8 h
SDR-Pb = molecular target: T7, SDR-Pb (Paenibacillus rhizosphaerae, UniProt A0A1R1EZ79); assay: HPLC of reduction to […]; format: biochemical; conditions: 290 uM ET-743, 1 mM NADPH, Tris-HCl pH 8.0, 30 C, 8 h
T7 construct: gene BK138_00365; recombinant in E. coli BL21(DE3), His-tagged
T7 sequence (A0A1R1EZ79 entry or part of it): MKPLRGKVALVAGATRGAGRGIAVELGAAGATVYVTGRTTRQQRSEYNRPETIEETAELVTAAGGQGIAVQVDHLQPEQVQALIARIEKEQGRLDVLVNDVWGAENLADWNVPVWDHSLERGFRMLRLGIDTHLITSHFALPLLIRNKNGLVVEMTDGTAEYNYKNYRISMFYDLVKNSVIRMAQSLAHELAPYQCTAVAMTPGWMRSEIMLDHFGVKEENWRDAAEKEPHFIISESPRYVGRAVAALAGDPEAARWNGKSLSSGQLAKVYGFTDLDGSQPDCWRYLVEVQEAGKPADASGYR

SfmO1 = SfmO1 (Streptomyces lavendulae, UniProt B0CN12); assay: HPLC and MS of reduction to […]; format: biochemical; conditions: 290 uM ET-743, 1 mM NADPH, Tris-HCl pH 8.0, 30 C, 8 h
SfmO1, sequence (B0CN12 entry or part of it): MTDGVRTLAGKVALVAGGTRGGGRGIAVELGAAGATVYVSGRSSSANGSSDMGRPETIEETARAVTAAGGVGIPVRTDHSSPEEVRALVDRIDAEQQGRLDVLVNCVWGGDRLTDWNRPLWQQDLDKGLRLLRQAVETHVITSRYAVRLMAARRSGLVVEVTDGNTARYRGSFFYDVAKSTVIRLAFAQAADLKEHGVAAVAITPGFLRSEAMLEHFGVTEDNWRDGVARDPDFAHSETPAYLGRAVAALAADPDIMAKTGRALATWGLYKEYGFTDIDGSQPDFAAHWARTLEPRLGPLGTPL

SDR-Cs = molecular target: T8, SDR-Cs (Chlorella sorokiniana, UniProt A0A2P6TRY4); assay: HPLC of reduction to […]; format: biochemical; conditions: 290 uM ET-743, 1 mM NADPH, Tris-HCl pH 8.0, 30 C, 8 h
T8 construct: gene C2E21_4667; recombinant in E. coli BL21(DE3), His-tagged
T8 sequence (A0A2P6TRY4 entry or part of it): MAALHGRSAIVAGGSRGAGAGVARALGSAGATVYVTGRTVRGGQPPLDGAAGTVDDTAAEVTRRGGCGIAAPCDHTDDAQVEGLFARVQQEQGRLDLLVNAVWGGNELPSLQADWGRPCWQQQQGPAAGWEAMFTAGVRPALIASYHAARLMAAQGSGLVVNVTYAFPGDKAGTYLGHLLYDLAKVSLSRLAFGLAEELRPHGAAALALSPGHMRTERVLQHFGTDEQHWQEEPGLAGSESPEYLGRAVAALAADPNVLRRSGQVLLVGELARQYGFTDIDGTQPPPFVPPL

SfmC = molecular target: T9, SfmC (Streptomyces lavendulae, UniProt B0CN27); assay: MS of dual Pictet-Spengler product […]; format: biochemical; conditions: 1 mM substrate, 0.5 mM myristoyl-Ala-glycinaldehyde, 1 mM ATP, MgCl2, MnCl2, NADH, HEPES pH 7.0, 30 C, 2 h
T9 construct: NRPS
T9 sequence (B0CN27 entry or part of it): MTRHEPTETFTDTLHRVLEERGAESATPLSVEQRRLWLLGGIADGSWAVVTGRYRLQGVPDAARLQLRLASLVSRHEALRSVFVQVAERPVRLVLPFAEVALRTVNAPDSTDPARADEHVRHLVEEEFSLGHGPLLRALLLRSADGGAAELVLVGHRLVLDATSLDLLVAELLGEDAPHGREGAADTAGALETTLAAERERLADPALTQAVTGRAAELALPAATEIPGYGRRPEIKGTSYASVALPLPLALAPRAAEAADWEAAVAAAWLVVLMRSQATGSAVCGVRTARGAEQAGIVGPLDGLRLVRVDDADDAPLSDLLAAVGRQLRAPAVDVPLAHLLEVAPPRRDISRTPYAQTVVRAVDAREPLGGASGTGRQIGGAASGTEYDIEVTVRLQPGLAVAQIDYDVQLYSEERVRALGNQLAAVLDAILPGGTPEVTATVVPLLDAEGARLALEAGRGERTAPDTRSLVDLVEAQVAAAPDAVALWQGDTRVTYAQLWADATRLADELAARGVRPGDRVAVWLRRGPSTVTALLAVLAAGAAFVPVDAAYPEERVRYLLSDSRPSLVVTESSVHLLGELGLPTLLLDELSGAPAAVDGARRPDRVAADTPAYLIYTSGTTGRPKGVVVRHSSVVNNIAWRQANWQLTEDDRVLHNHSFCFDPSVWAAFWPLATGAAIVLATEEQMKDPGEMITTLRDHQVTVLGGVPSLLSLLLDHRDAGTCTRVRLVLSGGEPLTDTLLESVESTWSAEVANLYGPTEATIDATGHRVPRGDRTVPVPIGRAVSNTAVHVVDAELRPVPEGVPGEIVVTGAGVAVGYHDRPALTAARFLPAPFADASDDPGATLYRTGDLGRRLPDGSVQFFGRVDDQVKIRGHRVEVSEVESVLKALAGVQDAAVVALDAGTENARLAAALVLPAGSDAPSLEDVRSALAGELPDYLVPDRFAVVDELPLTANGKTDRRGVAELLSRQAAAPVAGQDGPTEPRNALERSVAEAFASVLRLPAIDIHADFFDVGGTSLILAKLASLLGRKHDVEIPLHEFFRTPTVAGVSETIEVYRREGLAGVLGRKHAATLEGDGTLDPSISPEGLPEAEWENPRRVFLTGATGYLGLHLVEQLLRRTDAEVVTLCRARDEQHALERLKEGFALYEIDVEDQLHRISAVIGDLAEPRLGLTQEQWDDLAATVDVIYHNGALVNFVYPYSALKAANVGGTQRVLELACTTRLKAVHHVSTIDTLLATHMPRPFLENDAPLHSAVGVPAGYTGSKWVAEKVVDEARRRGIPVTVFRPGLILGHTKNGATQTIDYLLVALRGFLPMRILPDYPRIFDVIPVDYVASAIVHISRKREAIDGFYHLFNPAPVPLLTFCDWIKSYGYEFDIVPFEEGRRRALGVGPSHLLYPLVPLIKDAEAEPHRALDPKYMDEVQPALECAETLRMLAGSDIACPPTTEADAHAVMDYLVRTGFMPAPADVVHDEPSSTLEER

NC(=O)c1ccc[n+]([C@@H]2O[C@H](COP(=O)(O)OP(=O)(O)OC[C@H]3O[C@@H](n4cnc5c(N)ncnc54)[C@H](OP(=O)(O)O)[C@@H]3O)[C@@H](O)[C@H]2O)c1 [NADP^+]
X-ray crystal structure (co-crystallisation) (NapW [1]): We further obtained the structure of NapW·NADP^+ binary complex by co-crystallizing NapW, NADP(H)

COc1cc2c(cc1O)CCN[C@]21CS[C@@H]2c3c(OC(C)=O)c(C)c4c(c3[C@H](COC1=O)N1[C@@H]2[C@H]2c3c(cc(C)c(OC)c3O)C[C@@H]([C@@H]1O)N2C)OCO4 [compound 7, ET-743]
HPLC of reduction to 8 [2]: most proteins can catalyze reductive reaction of THIQ compounds except that SDR-Li and SDR-Ss
HPLC and MS of reduction to 8 (homW): each of the five SDRs originated from NDM or SFM-A producer could effectively catalyze
HPLC and MS of reduction to 8 (homO1b): each of the five SDRs originated from NDM or SFM-A producer could effectively catalyze
HPLC of reduction to 8 (SDR-Mb): most proteins can catalyze reductive reaction of THIQ compounds except that SDR-Li and SDR-Ss
HPLC and MS of reduction to 8 (homO1a): each of the five SDRs originated from NDM or SFM-A producer could effectively catalyze
HPLC and MS of reduction to 8 (NapW [3]): each of the five SDRs originated from NDM or SFM-A producer could effectively catalyze
HPLC of reduction to 8 (SDR-Pb): most proteins can catalyze reductive reaction of THIQ compounds except that SDR-Li and SDR-Ss
HPLC and MS of reduction to 8 (SfmO1): each of the five SDRs originated from NDM or SFM-A producer could effectively catalyze
HPLC of reduction to 8 (SDR-Cs): most proteins can catalyze reductive reaction of THIQ compounds except that SDR-Li and SDR-Ss

COc1c(C)cc(C[C@H](N)C(=O)O)cc1O [3-OH-5-Me-O-Me-Tyr]
MS of dual Pictet-Spengler product 16 (SfmC): Dual Pictet-Spengler reactions catalyzed SfmC
